The text below walks through data of US20100261739A1, “Method of Treating Non-Small Cell Lung Cancer” (Myriad Pharmaceuticals, Inc., priority 2007, published 2010).

Where a name gives a salt, the structure may show the parent alone.

The subject of the series is Subjects with Refractory Solid Tumors. The series is described as follows: Phase I clinical trial, open-label, dose-escalating, multiple-dose, weekly intravenous administration. In kind it is in vivo, human. As to the method: An open-label, dose-escalating, multiple-dose study to define the safety, tolerability and phamacokinetics of weekly intravenous administration of (4-Methoxy-phenyl)-methyl-(2-methyl-quinazolin-4-yl)-amine hydrochloride was performed. A dosing schedule (each 4 week cycle) was performed for (4-Methoxy-phenyl)-methyl-(2-methyl-quinazolin-4-yl)-amine hydrochloride weekly for 3 weeks with no infusion on the fourth week of each cycle. Subjects with refractory solid tumors were enrolled. During Cycle 1, subjects were hospitalized during each infusion of (4-Methoxy-phenyl)-methyl-(2-methyl-quinazolin-4-yl)-amine hydrochloride and remained for observation and safety evaluation for approximately 24 hours following the end of the infusion. All subject had continuous telemetry for 2 hours prior to infusion, for 1-2 hour infusion and for 3 hours after the end of the infusion. Any clinically significant electrocardiographic (ECG) wave form abnormality was recorded and prolongation of the monitoring period extended at the discretion of the principal investigator.
Electrocardiograms were obtrained prior to starting the infusion and within 30 minutes of the end of infusion for each infusino of the first cycle. Electrocardiograms on Day 1 were obtained in triplicate 5 minutes apart.
Neurocognitive assessments were made by administration of the Mini-Mental State Examination (MMSE), the Hopkins Verbal Learning and timed Grooved Pegboard tests before administration of the intravenous infusion and approximately 24 hours after the infusion at each weekly administration of the first cycle.
On days 1, 8, and 15 of each cycle, vital signs were obtained prior to the first dose, at 15, 30, and 60 minutes after the initiation of the infusion, and at 0.5, 1, 1.5, 2, and 4 hours after the end of the intravenous infusion. Vital signs at all time points beyond the start of the intravenous infusion included heart rate, blood pressure and respirations. Temperature was measured at the end of the infusion and 4 hours later.
Individual subjects were allowed to continue on repeated weekly ×3 administrations every 28 days with no dose increase provided there was no unacceptable toxicity or disease progression.
Tumor response was evaluated by response evaluation criteria in solid tumors
(RECIST) criteria. To prevent sever hypersensitivity reactions due to Cremophor® EL, subjects were premedicated with oral dexamethasone (20 mg) administered approximately 12 and 6 hours before the intravenous infusion with (4-Methoxy-phenyl)-methyl-(2-methyl-quinazolin-4-yl)-amine hydrochloride, diphenhydramine (50 mg) or its equivalent administered intravenously 30-60 minutes before (4-Methoxy-phenyl)-methyl-(2-methyl-quinazolin-4-yl)-amine hydrochloride, and cimetidine (300 mg) or ranitidine (50 mg) administered intravenously 30-60 minutes before (4-Methoxy-phenyl)-methyl-(2-methyl-quinazolin-4-yl)-amine hydrochloride.

Setting [1] is: at the administered doses (0.3-4.5 mg/m^2), weekly i.v.

For the compound `COc1ccc(N(C)c2nc(C)nc3ccccc23)cc1` [(4-Methoxy-phenyl)-methyl-(2-methyl-quinazolin-4-yl)-amine hydrochloride], under setting [1], the cytotoxicity peripherally result is given as “no evidence from the results of the clinical trials of cytotoxicity peripherally” and the “effect on laboratory parameters (neutrophils, platelets, hemoglobin)” value is given as “no apparent effect”. The safety and tolerability result (human subjects at selected dosages, summary of Phase 1 studies) was “safe and well tolerated”. Besides, the “disease progression (tumor response by RECIST criteria)” value (one patient in Cohort 10 (3.3 mg/m^2) with NSCLC that had metastasized to the CNS, weekly i.v. for 3 weeks of each 4 week cycle) is “not shown to have disease progression”. Further, the dose limiting toxicity entry (particularly in Cohorts 8 and 9 (3.9 and 4.5 mg/m^2)) is reported as “vascular in nature, manifested by an acute coronary syndrome”. Further, the intratumor bleeding result (weekly i.v., human subjects) was “incidences of intratumor bleeding”. The “optimal dosage derived from the trials” value (weekly i.v., hydrochloride salt basis) is at most 3.3 mg/m^2. For the same compound, for the setting “within dosage range 3.3 mg/m^2 or lower”, the safety and tolerability entry is “safe and tolerated”.
